Reference: the supplement of paper PMC11061612

Experiments:
Test in all cases: combination Emax (second highest fraction inhibited in the dose matrix, 72 h); higher = more inhibition; extreme values may be limits of the assay
[1] = system: NCI-H1581 (Non-Small Cell Lung Carcinoma)
Summary of the method: (§1)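 Cell lines grown in DMEM/F12 or RPMI with 10% FBS were plated in 1536-well plates and held 24 hours at 37°C, 5% CO2 before 72 hours of exposure to two-drug dose matrices, with DMSO typically at 0.2%. CellTiter-Glo 2.0 luminescence gave viability, which was converted to inhibition. Vehicle wells were set to 0 and blank wells to 1. Combination Emax is the second-highest inhibition in the matrix, and Bliss excess is the observed combination effect minus the expected EA + EB − EA·EB, where EA and EB are the single-agent effects.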

NY (Osteosarcoma) = system: NY (Osteosarcoma)
Summary of the method: as §1

[2] = system: SK-MG-1 (Low Grade Glioma)
Summary of the method: as §1

U-2-OS (Osteosarcoma) = system: U-2-OS (Osteosarcoma)
Summary of the method: as §1

[3] = system: VCaP (Prostate Carcinoma)
Summary of the method: as §1

GI-ME-N (Neuroblastoma) = system: GI-ME-N (Neuroblastoma)
Summary of the method: as §1

[4] = system: CCK-81 (Colorectal Carcinoma)
Summary of the method: as §1

[5] = system: A549 (Lung Adenocarcinoma)
Summary of the method: as §1

LN-405 (Glioblastoma) = system: LN-405 (Glioblastoma)
Summary of the method: as §1

[6] = system: OS-RC-2 (Kidney Carcinoma)
Summary of the method: as §1

[7] = system: CAPAN-2 (Pancreatic Carcinoma)
Summary of the method: as §1

[8] = system: ONS-76 (Other Solid Carcinomas)
Summary of the method: as §1

[9] = system: SISO (Cervical Carcinoma)
Summary of the method: as §1

[10] = system: CAL-29 (Bladder Carcinoma)
Summary of the method: as §1

[11] = system: COLO-824 (Breast Carcinoma)
Summary of the method: as §1

[12] = system: NCI-H1650 (Lung Adenocarcinoma)
Summary of the method: as §1

[13] = system: JSC-1 (B-Cell Non-Hodgkin's Lymphoma)
Summary of the method: as §1

PA-1 (Ovarian Carcinoma) = system: PA-1 (Ovarian Carcinoma)
Summary of the method: as §1

[14] = system: TT (Thyroid Gland Carcinoma)
Summary of the method: as §1

CAS-1 (Glioblastoma) = system: CAS-1 (Glioblastoma)
Summary of the method: as §1

NC1(C(=O)N[C@@H](CCO)c2ccc(Cl)cc2)CCN(c2ncnc3[nH]ccc23)CC1 [Capivasertib] + CC(=O)c1c(C)c2cnc(Nc3ccc(N4CCNCC4)cn3)nc2n(C2CCCC2)c1=O [Palbociclib] (first compound max 10 µM, 7x7, partner max 10 µM)
combination Emax [1]: 0.373
combination Emax (NY (Osteosarcoma)): 0.161
combination Emax [2]: 0.62
combination Emax (U-2-OS (Osteosarcoma)): 0.408
combination Emax [3]: 0.514
combination Emax (GI-ME-N (Neuroblastoma)): 0.422
combination Emax [4]: 0.337
combination Emax [5]: 0.764
combination Emax (LN-405 (Glioblastoma)): 0.577
combination Emax [6]: 0.454
combination Emax [7]: 0.242
combination Emax [8]: 0.557
combination Emax [9]: 0.201
combination Emax [10]: 0.479
combination Emax [11]: 0.612
combination Emax [12]: 0.351
combination Emax [13]: 0.669
combination Emax (PA-1 (Ovarian Carcinoma)): 0.909
combination Emax [14]: 0.447
combination Emax (CAS-1 (Glioblastoma)): 0.635

COc1cccc(OCCCN)c1-c1cc(Nc2cnc(C#N)cn2)n[nH]1 [Prexasertib] + C=CCn1c(=O)c2cnc(Nc3ccc(N4CCN(C)CC4)cc3)nc2n1-c1cccc(C(C)(C)O)n1 [AZD1775] (first compound max 1 µM, partner max 1 µM)
combination Emax [1]: 0.75
combination Emax (NY (Osteosarcoma)): 0.663
combination Emax [2]: 0.908
combination Emax (U-2-OS (Osteosarcoma)): 0.934
combination Emax [3]: 0.774
combination Emax (GI-ME-N (Neuroblastoma)): 0.513
combination Emax [4]: 0.945
combination Emax [5]: 0.776
combination Emax (LN-405 (Glioblastoma)): 0.587
combination Emax [6]: 0.519
combination Emax [7]: 0.569
combination Emax [8]: 0.829
combination Emax [9]: 0.891
combination Emax [10]: 0.876
combination Emax [11]: 0.861
combination Emax [12]: 0.6
combination Emax [13]: 0.998
combination Emax (PA-1 (Ovarian Carcinoma)): 0.851
combination Emax [14]: 0.759
combination Emax (CAS-1 (Glioblastoma)): 0.696

COc1cccc(OCCCN)c1-c1cc(Nc2cnc(C#N)cn2)n[nH]1 [Prexasertib] + CN(C)CCCOc1ccc(-c2ccc3ncc4c(c3c2)n(C2CCOCC2)c(=O)n4C)cn1 [AZD0156] (first compound max 1 µM, 7x7, partner max 1 µM)
combination Emax [1]: 0.284
combination Emax (NY (Osteosarcoma)): 0.62
combination Emax [2]: 0.843
combination Emax (U-2-OS (Osteosarcoma)): 0.943
combination Emax [3]: 0.741
combination Emax (GI-ME-N (Neuroblastoma)): 0.529
combination Emax [4]: 0.927
combination Emax [5]: 0.536
combination Emax (LN-405 (Glioblastoma)): 0.516
combination Emax [6]: 0.498
combination Emax [7]: 0.592
combination Emax [8]: 0.862
combination Emax [9]: 0.745
combination Emax [10]: 0.836
combination Emax [11]: 0.785
combination Emax [12]: 0.51
combination Emax [13]: 1
combination Emax (PA-1 (Ovarian Carcinoma)): 0.725
combination Emax [14]: 0.676
combination Emax (CAS-1 (Glioblastoma)): 0.674

Cc1c2c(nn1C)CSCc1cc(n(C)n1)CSc1cc(c3ccccc3c1)OCCCc1c(C(=O)O)n(C)c3c-2c(Cl)ccc13 [AZD5991] + Cn1cnc2c(F)c(Nc3ccc(Br)cc3Cl)c(C(=O)NOCCO)cc21 [Selumetinib] (first compound max 1 µM, 7x7, partner max 3 µM)
combination Emax [1]: 0.991
combination Emax (NY (Osteosarcoma)): 0.416
combination Emax [2]: 0.339
combination Emax (U-2-OS (Osteosarcoma)): 0.331
combination Emax [3]: 0.911
combination Emax (GI-ME-N (Neuroblastoma)): 0.421
combination Emax [4]: 0.947
combination Emax [5]: 0.64
combination Emax (LN-405 (Glioblastoma)): 0.383
combination Emax [6]: 0.238
combination Emax [7]: 0.482
combination Emax [8]: 0.631
combination Emax [9]: 0.173
combination Emax [10]: 0.677
combination Emax [11]: 0.406
combination Emax [12]: 0.16
combination Emax [13]: 1
combination Emax (PA-1 (Ovarian Carcinoma)): 0.865
combination Emax [14]: 0.339
combination Emax (CAS-1 (Glioblastoma)): 0.286

COc1cccc(OCCCN)c1-c1cc(Nc2cnc(C#N)cn2)n[nH]1 [Prexasertib] + O=C(c1cc(Cc2n[nH]c(=O)c3ccccc23)ccc1F)N1CCN(C(=O)C2CC2)CC1 [Olaparib] (first compound max 1 µM, 7x7, partner max 10 µM)
combination Emax [1]: 0.563
combination Emax (NY (Osteosarcoma)): 0.652
combination Emax [2]: 0.904
combination Emax (U-2-OS (Osteosarcoma)): 0.908
combination Emax [3]: 0.797
combination Emax (GI-ME-N (Neuroblastoma)): 0.452
combination Emax [4]: 0.841
combination Emax [5]: 0.614
combination Emax (LN-405 (Glioblastoma)): 0.592
combination Emax [6]: 0.475
combination Emax [7]: 0.337
combination Emax [8]: 0.793
combination Emax [9]: 0.803
combination Emax [10]: 0.714
combination Emax [11]: 0.77
combination Emax [12]: 0.494
combination Emax [13]: 0.996
combination Emax (PA-1 (Ovarian Carcinoma)): 0.706
combination Emax [14]: 0.59
combination Emax (CAS-1 (Glioblastoma)): 0.588

COc1cccc(OCCCN)c1-c1cc(Nc2cnc(C#N)cn2)n[nH]1 [Prexasertib] + C[C@@H]1COCCN1C2=NC(=NC(=C2)C3(CC3)[S@](=N)(=O)C)C4=C5C=CNC5=NC=C4 [AZD6738] (first compound max 1 µM, 7x7, partner max 10 µM)
combination Emax [1]: 0.566
combination Emax (NY (Osteosarcoma)): 0.637
combination Emax [2]: 0.802
combination Emax (U-2-OS (Osteosarcoma)): 0.894
combination Emax [3]: 0.718
combination Emax (GI-ME-N (Neuroblastoma)): 0.563
combination Emax [4]: 0.929
combination Emax [5]: 0.864
combination Emax (LN-405 (Glioblastoma)): 0.553
combination Emax [6]: 0.483
combination Emax [7]: 0.513
combination Emax [8]: 0.903
combination Emax [9]: 0.798
combination Emax [10]: 0.839
combination Emax [11]: 0.796
combination Emax [12]: 0.519
combination Emax [13]: 0.995
combination Emax (PA-1 (Ovarian Carcinoma)): 0.778
combination Emax [14]: 0.662
combination Emax (CAS-1 (Glioblastoma)): 0.652

COc1nnc2ccc(N3CCC(c4ccc(OCCN5CCN(C)C(=O)[C@H]5C)cc4)CC3)nn12 [AZD5153] + Cc1c2c(nn1C)CSCc1cc(n(C)n1)CSc1cc(c3ccccc3c1)OCCCc1c(C(=O)O)n(C)c3c-2c(Cl)ccc13 [AZD5991] (first compound max 1 µM, 7x7, partner max 1 µM)
combination Emax [1]: 0.983
combination Emax (NY (Osteosarcoma)): 0.688
combination Emax [2]: 0.425
combination Emax (U-2-OS (Osteosarcoma)): 0.418
combination Emax [3]: 0.988
combination Emax (GI-ME-N (Neuroblastoma)): 0.377
combination Emax [4]: 0.916
combination Emax [5]: 0.821
combination Emax (LN-405 (Glioblastoma)): 0.574
combination Emax [6]: 0.372
combination Emax [7]: 0.296
combination Emax [8]: 0.497
combination Emax [9]: 0.508
combination Emax [10]: 0.355
combination Emax [11]: 0.724
combination Emax [12]: 0.441
combination Emax [13]: 1
combination Emax (PA-1 (Ovarian Carcinoma)): 1
combination Emax [14]: 0.623
combination Emax (CAS-1 (Glioblastoma)): 0.64
